Measurements: patent US3951954A, “Novel oxofuryl ester derivatives of penicillin and cephalosporin” (priority 1971, dated 1976)
Where a name gives a salt, the structure may show the parent alone.

What was measured:
[1] = Concentration of ampicillin in blood plasma of rats after oral administration (Experiment a); conditions: rat, in vivo, 20 mg/kg
Excerpt: Now, for showing the excellent properties of the compounds of this invention, the experiments of testing the concentration of the compound in blood when it was orally administered and the results thereof are shown in the following examples together with the results of the tests made about ampicillin and pivampicillin.
Each of ampicillin tri-hydrate, pivampicillin hydrochloride-mono-hydrate, and the hydrochloride of the aimed compound of this invention was orally administered to rats (male, each group five rats) in an amount of 20 mg/kg as ampicillin and after 0.5 hour, the blood was drawn and the concentration of ampicillin in the blood plasma was measured.

[2] = background statement; cited from earlier work
[3] = Chemical Abstracts 45, 4824h (1951); 55, 8653d (1961); cited from earlier work
[4] = tested on: liver; conditions: Biochem. Pharmacol. 16, 1533-1537 (1967) and others; cited from earlier work

SMILES: CC1(C)S[C@@H]2[C@H](NC(=O)[C@H](N)c3ccccc3)C(=O)N2[C@H]1C(=O)O [Ampicillin tri-hydrate, reference compound]
- concentration at 0.5 h [1]: 1000 ng/mL

SMILES: CC1(C)S[C@@H]2[C@H](NC(=O)[C@H](N)c3ccccc3)C(=O)N2[C@H]1C(=O)OC1OC(=O)c2ccccc21 (some centres unmarked) [Example 2, ampicillin 1-oxo-1,3-dihydroisobenzofuran-3-yl ester hydrochloride]
- Concentration of ampicillin in blood plasma ([1]; 30 min): 5580 ng/mL

SMILES: CC1(C)S[C@@H]2C(NC(=O)C(N)c3ccccc3)C(=O)N2[C@H]1C(=O)O (stereo partly drawn) [ampicillin, 6-(α-aminophenylacetamido)penicillanic acid]
- extent of absorption by oral administration [2]: not necessarily sufficient

SMILES: C=O [formaldehyde]
- toxic property compared with other aldehydes of larger molecular weight [3]: about 50 times
- influence on liver [4]: bad influences on a liver
